The structures appear in SMILES notation. Read-outs that look alike come from different tables or passages of the source.

Assay [1] deals with T1, Bay C12-preferring acyl-ACP thioesterase (Umbellularia californica, UniProt Q41635).
T1 sequence (Q41635 84-382): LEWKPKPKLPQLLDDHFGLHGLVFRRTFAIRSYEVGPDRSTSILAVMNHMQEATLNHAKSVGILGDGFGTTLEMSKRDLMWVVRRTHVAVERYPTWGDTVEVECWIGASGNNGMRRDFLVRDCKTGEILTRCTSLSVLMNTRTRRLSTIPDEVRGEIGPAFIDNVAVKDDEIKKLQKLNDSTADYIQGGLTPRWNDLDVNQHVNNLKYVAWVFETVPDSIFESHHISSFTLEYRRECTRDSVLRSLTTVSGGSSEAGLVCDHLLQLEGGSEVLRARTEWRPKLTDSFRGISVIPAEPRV
As to the kind of experiment: Substrate hydrolysis (ACP versus CoA) by peak gradient-eluted fraction of the ACP column. It counts as biochemical. The following applies: cpm of ether-extractable product. Also noted: This comprises the source tissue for enzyme extraction; from tissue; host or cells: cotyledons of immature Umbellularia californica seeds. The protocol:
(§1) To assay for C12 thioesterase activity the following mixture is incubated at 30° for 30 min: "buffer" comprising 7mM KH2PO4-KOH pH 8, 20% v/v glycerol, 1mM dithiothreitol (DTT), 0.1% v/v Triton X100; sample to be tested for activity in the same or similar buffer as the "extraction buffer" described in Example 2; and 5µl of ^14C-radiolabeled lauroyl-ACP substrate for a total volume of 100µl and final lauroyl-ACP concentration of 0.5µM. Lauroyl-ACP substrate is prepared according to the method of Rock et al (Methods in Enzymology (1981) 72:397-403), using ACP prepared from Escherichia coli by the method of Rock and Cronan (Methods in Enzymology (1981) 71:341-351). The laurate is radiolabeled in the carboxylate group at a specific radioactivity of 50-60µCi/µmol.
(§2) The reaction is stopped by adding 0.5ml cold (0°) 10% v/v acetic acid. […] After settling for a few minutes the upper ether layer is transferred to 5ml scintillation fluid for determination of radioactivity by liquid scintillation spectrometry. Additional ether extractions may be performed to recover remaining traces of the reaction product for more accurate quantitation of the enzyme activity if desired. The amount of ether-extracted radioactivity is a direct measure of C12-preferring acyl-ACP thioesterase activity, provided the amount of enzyme is not sufficient to hydrolyze more than about 25% of the substrate. […]

Assay [2] concerns Bay seeds extractable C12-preferring acyl-ACP thioesterase and lauroyl-CoA hydrolysis activity. Briefly: Extractable hydrolysis activity at two stages of Bay seed development. It counts as biochemical, Umbellularia californica. The following applies: cpm ether-extractable radioactivity. Here is the method:
as §1
(§3) The reaction is stopped by adding 0.5ml cold (0°) 10% v/v acetic acid. The fatty acid product of the hydrolytic enzyme action is extracted away from the unhydrolyzed substrate by adding 1ml diethyl ether and mixing vigorously. After settling for a few minutes the upper ether layer is transferred to 5ml scintillation fluid for determination of radioactivity by liquid scintillation spectrometry. Additional ether extractions may be performed to recover remaining traces of the reaction product for more accurate quantitation of the enzyme activity if desired. The amount of ether-extracted radioactivity is a direct measure of C12-preferring acyl-ACP thioesterase activity, provided the amount of enzyme is not sufficient to hydrolyze more than about 25% of the substrate. With greater activity than this the relationship between radioactivity in the ether layer and the quantity of enzyme becomes markedly nonlinear. The enzyme preparation must then be diluted appropriately to bring the activity into the linear range of the assay.
Further evidence that the C12-preferring acyl-ACP thioesterase is involved in the biosynthesis of laurate groups that predominate in the Bay seeds comes from a comparison of the extractable activity of the enzyme at two different stages of seed development. As shown in the following table, Table 5, very young seeds, which contain only long-chain fatty acids and insignificant amounts of laurate, yield much less C12-preferring ACP thioesterase than older seeds that have accumulated significant amounts of laurate. Thus it appears that significant activity of this enzyme is only present when the seeds are accumulating laurate. Additionally, there appears to be much less difference in lauroyl-CoA hydrolysis activity, consistent with their being different enzymes as discussed above in Example 5.

Assay [3] concerns material which fails to bind the ACP column (Lauroyl-CoA hydrolysis activity). Briefly: Substrate hydrolysis (ACP versus CoA) by peak unbound fraction of the ACP column. The following applies: Flow-through (nonbinding) fraction; cpm of ether-extractable product. The class given is biochemical, Umbellularia californica. Here is the method: as §1, §2
In assay [4] the target is T2, Bay cotyledon C12-preferring acyl-ACP thioesterase (Umbellularia californica, UniProt Q41635).
T2 construct: This comprises the source tissue for enzyme extraction; from tissue; host or cells: cotyledons of immature Umbellularia californica seeds
T2 sequence (Q41635 84-382): T1 sequence (Q41635 84-382)
Briefly: C12-preferring acyl-ACP thioesterase inhibitor studies, Bay ammonium sulfate fraction. The class given is biochemical. The following applies: for inhibition at 500 µM / inhibition at 5000 µM: read-out: Percent Inhibition; for sensitivity of the thioesterase to the thiol reagent (in words): 5mM, preliminary inhibitor studies. Here is the method: as §1, §3
The crude extract is subjected to ammonium sulfate fractionation as follows. Sufficient solid ammonium sulfate is gradually added with stirring over 30 min to achieve 70% saturation. The preparation is then stirred for a further 30 min. After centrifuging as described above, the pelleted material is resuspended in extraction buffer (2ml/g original tissue weight) and stirred for 10 min until dissolved. Ammonium sulfate is then added as before, but this time only sufficient to achieve 50% saturation. After centrifuging as before, the supernatant fraction is discarded. The pelleted material, which contains the C12-preferring acyl-ACP thioesterase, may be frozen by immersion in liquid nitrogen and then stored at -70° at this stage if desired. The resulting material is referred to as the "ammonium sulfate fraction." Very little of the C12-preferring acyl-ACP thioesterase activity is lost if the pellet is frozen very rapidly.
Table 1 below reports inhibition of Bay cotyledon C12-preferring acyl-ACP thioesterase by thiol reagents observed when an ammonium sulfate fraction (see, Example 2) was assayed (see, Example 1).
After removal of dithiothreitol from an ammonium sulfate fraction preparation by passage through a small. column of G25-50 gel filtration medium (Pharmacia, Piscataway, NJ) the following assay results were observed.

Assay [5] deals with Cuphea C10-preferring acyl-ACP thioesterase. Briefly: C10 acyl-ACP thioesterase inhibitor studies, material from Example 9A. The class given is biochemical, Cuphea hookeriana. The following applies: preliminary inhibitor studies; for sensitivity of the thioesterase to the inhibitor (in words): concentration not given. The protocol:
Following the same general procedures as outlined in Example 1, to assay for C10 thioesterase activity, the following mixture is incubated at 30° for 10-60 min: 50µl sample to be tested in the same or similar "extraction buffer" described in Example 9A, and approximately 250pmol of [^14C]-radiolabeled acyl-ACP substrate, (usually decanoyl-ACP is labeled in the carboxylate group to 50-60µCi/µmol) in a total volume of […], for a final decanoyl-ACP concentration of 0.5-5.0µM, typically 5.0µM. The reaction is stopped by adding 0.5ml 10% (v/v) cold (4°) acetic acid and placing the reaction mixture on ice for a few minutes. The fatty acid product of the hydrolytic enzyme action is extracted away from the unhydrolyzed substrate by adding 2ml diethyl ether and mixing vigorously. The ether is transferred to 5ml scintillation fluid for scintillation counting. Additional ether extracts may be performed to recover remaining traces of product for more accurate quantitation of the activity if desired.
An acetone powder is prepared by grinding the seeds to a powder in a mortar and pestle under liquid nitrogen, and then grinding the powder in a mortar and pestle with cold acetone (at approximately -20°). The powder is collected by filtration and rinsed with cold ether to remove remaining traces of acetone. It is then extracted with 10ml of "extraction buffer" per gram of acetone powder weight (this and all subsequent steps at 0-4°) comprising 50mM KH2PO4-KOH pH 7.5, 10mM 2-mercaptoethanol. The homogenate is centrifuged at 11,000xg for 15 min at 4°, and the supernatant fraction used for subsequent purification steps after filtration through two layers of Miracloth (Calbiochem. Inc.; LaJolla, CA).
The supernatant fraction is then subjected to ammonium sulfate fractionation. The 40-60% saturation ammonium sulfate pellet (prepared as described in Example 2) is redissolved in "buffer" comprising 50mM KH2PO4-KOH pH 6.9, 10% (v/v) glycerol, and 10mM 2-mercaptoethanol, and dialyzed against this buffer to remove remaining ammonium sulfate. […]

The mark [6] stands for this setting: 0.5mM added to assay, mean of duplicates, ether layer, control without addition 4322.
[7] abbreviates: 5mM added to assay, after removal of dithiothreitol by G25-50 gel filtration, control 3776.
[8] abbreviates: 5mM added to assay, after removal of dithiothreitol by G25-50 gel filtration.
The mark [9] stands for this setting: 5mM added to assay, mean of duplicates, ether layer, control without addition 4322.

Take `CCCCCCCCCCCC(=O)SCCNC(=O)CCNC(=O)[C@H](O)C(C)(C)COP(=O)(O)OP(=O)(O)OC[C@H]1O[C@@H](n2cnc3c(N)ncnc32)[C@H](O)[C@@H]1OP(=O)(O)O` [C12-CoA, lauroyl coenzyme A]: the entries for the “Activity on Substrate” value in assay [1] and in assay [3] were 27 cpm and 10808 cpm, respectively. The “Hydrolysis / Thioesterase Activity In Assays” value is 31,268 cpm in assay [2] (Normal Seeds (2g/cotyledon pair)) and 29,995 cpm in assay [2] (Young Seeds (0.5g/cotyledon pair)).
One may read the inhibition as the share of the control response that was lost under treatment. For the compound `CCN1C(=O)C=CC1=O` [N-ethylmaleimide], the “Mean Activity” value in assay [4] (setting [6]) is 4320 cpm; in assay [4] (setting [7]), 269 cpm; in assay [4] (setting [9]) it was 103 cpm. Besides, the inhibition at 500 µM in assay [4] (0.5mM added to assay) is 0%. The inhibition at 5000 µM is 93% in assay [4] (setting [8]) and 98% in assay [4] (5mM added to assay). The “sensitivity of the thioesterase to the thiol reagent (in words)” value in assay [4] was “almost completely inhibited”. Besides, in assay [5] (5mM), the “inhibition of the thioesterase (in words)” value is “completely inhibited”.
As for `NC(=O)CI` [iodoacetamide], the “Mean Activity” value was found to be 4180 cpm in assay [4] (setting [6]), 3851 cpm in assay [4] (setting [7]) and 4047 cpm in assay [4] (setting [9]). In addition, in assay [4] (0.5mM added to assay), the inhibition at 500 µM amounted to 3%. Besides, the values for the inhibition at 5000 µM in assay [4] (setting [8]) and in assay [4] (5mM added to assay) were 0% and 6%, respectively. Moreover, the “sensitivity of the thioesterase to the thiol reagent (in words)” value in assay [4] is on record as “insensitive”. The “sensitivity of the thioesterase to the inhibitor (in words)” value in assay [5] is “insensitive”.
As for `O=S(=O)(F)Cc1ccccc1` [phenylmethylsulfonyl fluoride], the “sensitivity of the thioesterase to the inhibitor (in words)” value in assay [5] is “insensitive”.

Values taken from patent EP1298214A2, “Plant thioesterases” (Calgene LLC, priority 1990, dated 1991).
